Measurements from article PMC3458735, “Design of a novel tryptophan-rich membrane-active antimicrobial peptide from the membrane-proximal region of the HIV glycoprotein, gp41” (Beilstein Journal of Organic Chemistry, 2012).
Where no end group is shown, it is not given here.

How the values were obtained:
E. coli and S. aureus = assay: Antimicrobial activity, covering both strains; assay type: cell-based; conditions: for antimicrobial activity (in words): at the concentrations tested
Experimental: (§1) The antimicrobial activity for gp41w and its derivatives was determined against Gram-negative E. coli and Gram-positive S. aureus strains (Table 1).
(§2) Minimum inhibitory concentrations (MIC) and minimum bactericidal concentrations (MBC) were determined for E. coli and S. aureus as described previously. Hemolytic activity was also determined by using red blood cells from healthy volunteers, as described previously.

[1] = system: red blood cells from healthy volunteers; assay: Hemolytic activity on red blood cells; assay type: cell-based, human; conditions: for hemolytic concentration: peptide concentration at which red blood cells were lysed
Experimental: as §2

[2] = Acrylamide quenching of Trp fluorescence (Stern-Volmer constant); assay type: physicochemical; design: unit not given here; conditions: acrylamide titration (aliquots of 4 M acrylamide), 25 °C, three separate trials
Experimental: Acrylamide quenching experiments were performed for the four peptides to examine the accessibility of the Trp fluorophores in the various membrane environments. If a Trp side chain inserts into the hydrophobic core of the bilayer, it becomes less accessible to the effects of the soluble acrylamide quencher. The quenching of Trp fluorescence is directly related to the concentration of quencher, so a titration with the neutral acrylamide allows for the calculation of the Stern–Volmer constant (Ksv), which quantitatively measures the accessibility of the Trp residues in various lipid environments.
Intrinsic tryptophan fluorescence of the peptides was measured on a Cary Eclipse Fluorimeter (Agilent Technologies, Victoria, Australia) equipped with a temperature control unit set at 25 °C. Emission spectra were recorded between 300 and 400 nm with an excitation wavelength of 295 nm. Excitation and emission slits were kept at 5 and 10 nm, respectively, for all the peptides except for gp41w-FKA, which has a single Trp residue, and for which both slit widths were maintained at 10 nm. The concentration of SDS and DPC in the fluorescence samples was 25 mM, while the lipid concentration in the LUV samples was 30 μM. Acrylamide titrations were performed to determine Ksv by adding five aliquots of a 4 M acrylamide solution to the sample and recording an emission spectra using the parameters described above. Ksv was calculated by using the formula F0/F = […], Where F0 is the initial fluorescence and F is the fluorescence intensity after the addition of soluble quencher (Q).

[3] = Calcein leakage from LUVs; conditions: 37 °C, triplicate; for calcein leakage from zwitterionic ePC:ePE LUVs: highest peptide:lipid ratio tested; for calcein leakage from zwitterionic ePC:ePE LUVs (in words): melittin as positive control
Experimental: All four peptides were tested for their ability to induce the release of the self-quenching fluorescent dye, calcein, from calcein-encapsulated LUVs.
Melittin (black), a known lytic peptide from honey-bee venom was used as a positive control. All experiments were carried out in triplicate at 37 °C.
Calcein leakage was performed according to established protocols. Melittin, the principal component of bee venom and a known lytic peptide, was used as a positive control. Calcein leakage was measured for LUVs made from lipid mixtures of ePC:ePG, ePE:ePG or ePC:ePE.

S. aureus = conditions: for MBC S. aureus: minimum bactericidal concentration; for MIC S. aureus: minimum inhibitory concentration
Experimental: as §1, §2

E. coli = conditions: for MBC E. coli: minimum bactericidal concentration; for MIC E. coli: minimum inhibitory concentration
Experimental: as §1, §2

[4] = Tryptophan emission fluorescence in aqueous buffer; assay type: physicochemical; conditions: 25 °C, excitation 295 nm, a blue-shifted maximum is read as oligomerization in solution
Experimental: Tryptophan emission fluorescence of all the gp41w derivatives was performed to examine the microenvironment surrounding the Trp side chains. It is evident that the behaviour of the gp41w peptide is very different from the other peptides. The wavelength of the maximum emission for gp41w occurs at 342 nm, while the other three peptides have maximum emission wavelengths at ~356 nm. The value of 356 nm is normal for an exposed Trp side chain in aqueous solution. […] A shift towards lower wavelengths is usually interpreted as the Trp residue residing in a more hydrophobic environment, which may be due to the gp41w peptides oligomerizing in solution.
Intrinsic tryptophan fluorescence of the peptides was measured on a Cary Eclipse Fluorimeter (Agilent Technologies, Victoria, Australia) equipped with a temperature control unit set at 25 °C. Emission spectra were recorded between 300 and 400 nm with an excitation wavelength of 295 nm. […] The concentration of SDS and DPC in the fluorescence samples was 25 mM, while the lipid concentration in the LUV samples was 30 μM. […] Ksv was calculated by using the formula F0/F = […], Where F0 is the initial fluorescence and F is the fluorescence intensity after the addition of soluble quencher (Q).

[5] = earlier attempts at an NMR structure; cited from earlier work
Description: The lack of antimicrobial activity may be related to the fact that the gp41w peptide appears to oligomerize in solution. […] In terms of the antimicrobial activity, gp41w oligomers may be too large to pass through the peptidoglycan layer surrounding Gram-positive bacteria. Additionally, they would have to disassociate into monomers before the ...

[6] = 4:4:1 CDCl3:methanol-d3:H2O, 1–2 mg in 500 μL; aggregates persisted at higher temperatures
Experimental: Consequently, we chose to use a cosolvent mixture consisting of four parts deuterated chloroform, four parts deuterated methanol and one part water [19–20].
NMR samples were prepared by dissolving 1–2 mg of lyophilized peptide powder in 500 μL of the miscible cosolvent solution, and then the samples were flame sealed in an NMR tube to avoid evaporation of the organic solvents. Two-dimensional NOESY, TOCSY and COSY spectra were collected at 298 K on a Bruker Avance 700 MHz spectrometer. Mixing times in the NOESY and TOCSY experiments were 100 ms and 120 ms, respectively. Spectra were acquired with 4096 × 600 data points in the F1 and F2 dimensions at a spectral width of 8992.806 Hz. Water suppression was achieved by using excitation sculpting [44].

[7] = most potent peptide of Lee et al.; cited from earlier work
Description: Other de novo strategies for generating AMPs have been reported in the literature. For instance, Lee et al. recently published a study wherein they synthesized short peptides (5-11 residues) composed of only three amino acids: Lys, Leu and Trp. Their results support the notion that the antimicrobial activity of a peptide is related to peptide amphipathicity and helicity as well as to the location of the Trp residues.

Substance | antimicrobial activity (in words) (E. coli and S. aureus; E. coli and S. aureus) | concentrations of bacteriostatic and bactericidal effects (E. coli and S. aureus; range over MIC and MBC of both strains) [µg/mL] | hemolytic concentration [1] [µg/mL] | Ksv (Stern-Volmer constant) in buffer [2] | calcein leakage from zwitterionic ePC:ePE LUVs [3] | MBC S. aureus (S. aureus) [µg/mL] | MIC S. aureus (S. aureus) [µg/mL] | MBC E. coli (E. coli) [µg/mL] | MIC E. coli (E. coli) [µg/mL] | Hemolysis EC50 ([1]; effective concentration for 50% hemolysis, red blood cells from healthy volunteers) [µg/mL] | calcein leakage from zwitterionic ePC:ePE LUVs (in words) [3] | concentration below which no antimicrobial activity was observed (E. coli and S. aureus; E. coli and S. aureus) [µg/mL] | concentration below which hemolysis was not observed [1] [µg/mL] | hemolysis (in words) ([1]; peptide added to red blood cells) | wavelength of the maximum Trp emission in aqueous buffer [4] [nm] | behaviour in aqueous solution or 40% TFE (in words) [5] | solubility in the cosolvent mixture (in words) [6] | hemolytic activity (in words) [7]
KFAKKFKWFAKAAFKFFKK-NH2 [gp41w-FKA] | significant antimicrobial activity | 10 to 50 | 195 | 17.9 | ~ 70% | 20 to 30 | <10 | 40 to 50 | 10 to 30 | – | – | – | – | – | – | – | – | –
KWAKKWKWFAKAAWKWYKK-NH2 [gp41w-KA] | inactive | – | 42 | 16.4 | ~ 70% | >100 | >100 | >100 | >100 | – | – | – | – | – | – | – | – | –
KWARLWRWFRITRWLWYIK-NH2 [gp41w-4R] | inactive | – | 7 | 27.8 | – | >100 | >100 | >100 | >100 | 7 to 14 | significant leakage | – | – | – | – | – | – | –
KWASLWNWFNITNWLWYIK-NH2 [gp41w] | inactive | – | – | 10.3 | – | >100 | >100 | >100 | >100 | – | caused leakage, but not to the same extent | ≥ 100 | ≥ 500 | minimal hemolysis | 342 | peptide aggregation or poor solubility | did not readily dissolve | –
LKWLLKWLL-NH2 | – | – | – | – | – | – | – | – | – | – | – | – | – | – | – | – | – | significant hemolytic activity
